From the Kinase Knowledgebase extract (Sharma et al. 2016)
In brackets after ≈: the same amount, converted by molar mass.

The compounds below were run against CDK2 (human) (UniProt P24941) (assay: Enzyme Assay).

IC50 [µg/mL]	SMILES
0.35 (≈ 0.971 µM)	CNCc1cnc(C=NNc2ncnc3sc(C(C)(C)C)cc23)s1
1.4 (≈ 3.74 µM)	CN(C)Cc1csc(C=NNc2ncnc3sc(C(C)(C)C)cc23)n1
0.059 (≈ 0.186 µM)	CC(C)(C)c1cc2c(NN=Cc3cncs3)ncnc2s1
0.44 (≈ 1.22 µM)	CCC(C)c1cc2c(NN=Cc3nc(CNC)cs3)ncnc2s1 (stereo not given)
1.4 (≈ 3.91 µM)	CNCc1csc(C=NNc2ncnc3sc(C4CCC4)cc23)n1
0.2 (≈ 0.558 µM)	CC(C)(C)c1cc2c(NN=Cc3nc4c(s3)CNC4)ncnc2s1
2.2 (≈ 6.93 µM)	CC(C)(C)c1cc2c(NN=Cc3cscn3)ncnc2s1
> 2	CNCc1csc(C=NNc2ncnc3sc(C4CC4)cc23)n1
0.98 (≈ 2.72 µM)	CNCc1csc(C=NNc2ncnc3sc(C(C)(C)C)cc23)n1
1.4 (≈ 3.74 µM)	CCCC(C)c1cc2c(NN=Cc3nc(CNC)cs3)ncnc2s1 (stereo not given)
0.38 (≈ 1.1 µM)	CC(C)(C)c1cc2c(NN=Cc3nc(CN)cs3)ncnc2s1
1.7 (≈ 4.24 µM)	CC(C)(C)c1cc2c(NN=Cc3nc(C4CCNCC4)cs3)ncnc2s1
0.83 (≈ 2.3 µM)	CC(N)c1csc(C=NNc2ncnc3sc(C(C)(C)C)cc23)n1 (stereo not given)
0.2 (≈ 0.63 µM)	CC(C)(C)c1cc2c(NN=Cc3nccs3)ncnc2s1
0.88 (≈ 2.35 µM)	CNCc1csc(C=NNc2ncnc3sc(C(C)C(C)C)cc23)n1 (stereo not given)
1.4 (≈ 3.74 µM)	CCC(N)c1csc(C=NNc2ncnc3sc(C(C)(C)C)cc23)n1 (stereo not given)
1.1 (≈ 2.94 µM)	CNC(C)c1csc(C=NNc2ncnc3sc(C(C)(C)C)cc23)n1 (stereo not given)
1.8 (≈ 4.76 µM)	CNCc1csc(C=NNc2ncnc3sc(C(C)(C)CF)cc23)n1
1.5 (≈ 4.33 µM)	CNCc1csc(C=NNc2ncnc3sc(C(C)C)cc23)n1
1.8 (≈ 4.66 µM)	CC(C)(C)c1cc2c(NN=Cc3nc(C4CCNC4)cs3)ncnc2s1 (stereo not given)
0.68 (≈ 1.8 µM)	CC(N)c1csc(C=NNc2ncnc3sc(C(C)(C)CF)cc23)n1 (stereo not given)
0.68 (≈ 1.92 µM)	CNCc1ccc(C=NNc2ncnc3sc(C(C)(C)C)cc23)cc1
0.81 (≈ 2.1 µM)	CNCc1csc(C=NNc2ncnc3sc(C4CCCCC4)cc23)n1
1.8 (≈ 4.78 µM)	CNCc1csc(C=NNc2ncnc3sc(C(C)(C)CO)cc23)n1
1 (≈ 2.68 µM)	CC(C)(C)c1cc2c(NN=Cc3nc(C4CNC4)cs3)ncnc2s1
